Measurements published in paper PMC9481151, “Discovery of new symmetrical and asymmetrical nitrile-containing 1,4-dihydropyridine derivatives as dual kinases and P-glycoprotein inhibitors: synthesis, in vitro assays, and in silico studies” (Journal of Enzyme Inhibition and Medicinal Chemistry, 2022).
≈ marks a conversion by molar mass, not a printed value. Where “and” joins values, the source holds several entries; their conditions need not be identical. Identical values can stand only once.

How the values were obtained:
[1] = test system: OVCAR-5; assay: NCI single dose (10 µM) SRB screen; assay type: cell-based, human; conditions: ovarian cancer, 48 h
[2] = test system: E. coli; assay: MIC, two-fold microbroth dilution method; conditions: Escherichia coli, read-out: MIC (µg/mL) E. coli
[3] = test system: Aspergillus flavus; assay: Agar well diffusion method; conditions: for zone of inhibition at 1000 µg/mL: Aspergillus flavus, 24 h, read-out: Diameter of inhibition zone, A. flavus; for % activity index, A. flavus: relative to clotrimazole
[4] = test system: K-562; assay: NCI single dose (10 µM) SRB screen; assay type: cell-based, human; conditions: leukaemia, 48 h
[5] = test system: B. subtilis; assay: MIC, two-fold microbroth dilution method; conditions: Bacillus subtilis, read-out: MIC (µg/mL) B. subtilis
[6] = test system: SK-MEL-28; assay: NCI single dose (10 µM) SRB screen; assay type: cell-based, human; conditions: melanoma, 48 h
[7] = test system: IGROV1; assay: NCI single dose (10 µM) SRB screen; assay type: cell-based, human; conditions: ovarian cancer, 48 h
[8] = test system: 786-0; assay: NCI single dose (10 µM) SRB screen; assay type: cell-based, human; conditions: renal cancer, 48 h
[9] = test system: OVCAR-4; assay: NCI single dose (10 µM) SRB screen; assay type: cell-based, human; conditions: ovarian cancer, 48 h
[10] = test system: RXF 393; assay: NCI single dose (10 µM) SRB screen; assay type: cell-based, human; conditions: renal cancer, 48 h
[11] = test system: SN12C; assay: NCI single dose (10 µM) SRB screen; assay type: cell-based, human; conditions: renal cancer, 48 h
[12] = test system: OVCAR-8; assay: NCI single dose (10 µM) SRB screen; assay type: cell-based, human; conditions: ovarian cancer, 48 h
[13] = test system: Pseudomonas aeruginosa; assay: Agar well diffusion method; conditions: for zone of inhibition at 1000 µg/mL: Pseudomonas aeruginosa, 24 h, read-out: Diameter of inhibition zone, P. aeruginosa; for % activity index, P. aeruginosa: relative to ciprofloxacin
[14] = test system: T-47D; assay: NCI single dose (10 µM) SRB screen; assay type: cell-based, human; conditions: breast cancer, 48 h
[15] = test system: C. albicans; assay: MIC, two-fold microbroth dilution method; conditions: Candida albicans, read-out: MIC (µg/mL) C. albicans
[16] = test system: S. aureus; assay: MIC, two-fold microbroth dilution method; conditions: Staphylococcus aureus, read-out: MIC (µg/mL) S. aureus
[17] = test system: A. flavus; assay: MIC, two-fold microbroth dilution method; conditions: Aspergillus flavus, read-out: MIC (µg/mL) A. flavus
[18] = test system: NCI-H460; assay: NCI single dose (10 µM) SRB screen; assay type: cell-based, human; conditions: non-small cell lung cancer, 48 h
[19] = test system: OVCAR-3; assay: NCI single dose (10 µM) SRB screen; assay type: cell-based, human; conditions: ovarian cancer, 48 h
[20] = test system: SF-539; assay: NCI single dose (10 µM) SRB screen; assay type: cell-based, human; conditions: CNS cancer, 48 h
[21] = test system: P. aeruginosa; assay: MIC, two-fold microbroth dilution method; conditions: Pseudomonas aeruginosa, read-out: MIC (µg/mL) P. aeruginosa

| melting point [°C] | Compound | GI% OVCAR-5 [1] | zone of inhibition at 1000 µg/mL [3] [mm] | % activity index, A. flavus [3] [%] | GI% K-562 [4] | GI% SK-MEL-28 [6] | GI% IGROV1 [7] | GI% 786-0 [8] | GI% OVCAR-4 [9] | GI% RXF 393 [10] | GI% SN12C [11] | GI% OVCAR-8 [12] | zone of inhibition at 1000 µg/mL [13] [mm] | % activity index, P. aeruginosa [13] | GI% T-47D [14] | GI% NCI-H460 [18] | GI% OVCAR-3 [19] | GI% SF-539 [20] | further results |
| --- | --- | --- | --- | --- | --- | --- | --- | --- | --- | --- | --- | --- | --- | --- | --- | --- | --- | --- | --- |
| 152 to 153 | CCOC(=O)C1=C(C)NC(C)=C(C(=O)OC(C)(C)C)C1c1cccc(C#N)c1 (racemic) [Compound 2j, (±)-3-Tert-butyl 5-ethyl 4-(3-cyanophenyl)-2,6-dimethyl-1,4-dihydropyridine-3,5-dicarboxylate] | – (Only GI% ≥ 10 are shown) | 20 | 80 | 17% | – (Only GI% ≥ 10 are shown) | – (Only GI% ≥ 10 are shown) | 13% | – (Only GI% ≥ 10 are shown) | – (Only GI% ≥ 10 are shown) | – (Only GI% ≥ 10 are shown) | – (Only GI% ≥ 10 are shown) | 20 | 86% and 86.9% | – (Only GI% ≥ 10 are shown) | – (Only GI% ≥ 10 are shown) | – (Only GI% ≥ 10 are shown) | – (Only GI% ≥ 10 are shown) | MIC [2]: 1 µg/mL (≈ 2.61 µM); MIC [5]: 4 µg/mL (≈ 10.5 µM); MIC [15]: 16 µg/mL (≈ 41.8 µM); MIC [16]: 8 µg/mL (≈ 20.9 µM); MIC [17]: 8 µg/mL (≈ 20.9 µM); MIC [21]: 4 µg/mL (≈ 10.5 µM) |
| 136 to 138 | CCOC(=O)C1=C(C)NC(C)=C(C(=O)OC(C)C)C1c1cccc(C#N)c1 (racemic) [Compound 2h, (±)-3-Ethyl 5-isopropyl 4-(3-cyanophenyl)-2,6-dimethyl-1,4-dihydropyridine-3,5-dicarboxylate] | – (Only GI% ≥ 10 are shown) | 12 | 48 | – (Only GI% ≥ 10 are shown) | – (Only GI% ≥ 10 are shown) | – (Only GI% ≥ 10 are shown) | – (Only GI% ≥ 10 are shown) | – (Only GI% ≥ 10 are shown) | – (Only GI% ≥ 10 are shown) | – (Only GI% ≥ 10 are shown) | – (Only GI% ≥ 10 are shown) | 10 | 43.5% | – (Only GI% ≥ 10 are shown) | – (Only GI% ≥ 10 are shown) | – (Only GI% ≥ 10 are shown) | – (Only GI% ≥ 10 are shown) | – |
| 200 to 202 | COC(=O)C1=C(C)NC(C)=C(C(=O)OC)C1c1cccc(C#N)c1 [Compound 1a, Dimethyl 4-(3-cyanophenyl)-2,6-dimethyl-1,4-dihydropyridine-3,5-dicarboxylate] | – (Only GI% ≥ 10 are shown) | 15 | 60 | – (Only GI% ≥ 10 are shown) | – (Only GI% ≥ 10 are shown) | – (Only GI% ≥ 10 are shown) | – (Only GI% ≥ 10 are shown) | – (Only GI% ≥ 10 are shown) | – (Only GI% ≥ 10 are shown) | – (Only GI% ≥ 10 are shown) | – (Only GI% ≥ 10 are shown) | 12 | 52.2% | – (Only GI% ≥ 10 are shown) | – (Only GI% ≥ 10 are shown) | – (Only GI% ≥ 10 are shown) | – (Only GI% ≥ 10 are shown) | – |
| 127 to 128 | COCCOC(=O)C1=C(C)NC(C)=C(C(=O)OC)C1c1cccc(C#N)c1 (racemic) [Compound 2d, (±)-3-(2-Methoxyethyl) 5-methyl 4-(3-cyanophenyl)-2,6-dimethyl-1,4-dihydropyridine-3,5-dicarboxylate] | – (Only GI% ≥ 10 are shown) | 15 | 60 | – (Only GI% ≥ 10 are shown) | – (Only GI% ≥ 10 are shown) | – (Only GI% ≥ 10 are shown) | – (Only GI% ≥ 10 are shown) | – (Only GI% ≥ 10 are shown) | – (Only GI% ≥ 10 are shown) | – (Only GI% ≥ 10 are shown) | – (Only GI% ≥ 10 are shown) | 14 | 60.9% | – (Only GI% ≥ 10 are shown) | – (Only GI% ≥ 10 are shown) | – (Only GI% ≥ 10 are shown) | – (Only GI% ≥ 10 are shown) | – |
| 144 to 146 | CCOC(=O)C1=C(C)NC(C)=C(C(=O)OCC)C1c1cccc(C#N)c1 [Compound 1b, Diethyl 4-(3-cyanophenyl)-2,6-dimethyl-1,4-dihydropyridine-3,5-dicarboxylate] | – (Only GI% ≥ 10 are shown) | 16 | 64 | 43% | – (Only GI% ≥ 10 are shown) | – (Only GI% ≥ 10 are shown) | – (Only GI% ≥ 10 are shown) | – (Only GI% ≥ 10 are shown) | 10% | – (Only GI% ≥ 10 are shown) | – (Only GI% ≥ 10 are shown) | 10 | 43.5% | 23% | – (Only GI% ≥ 10 are shown) | – (Only GI% ≥ 10 are shown) | – (Only GI% ≥ 10 are shown) | – |
| 133 to 135 | COC(=O)C1=C(C)NC(C)=C(C(=O)OCC(C)C)C1c1cccc(C#N)c1 (racemic) [Compound 2b, (±)-3-Isobutyl 5-methyl 4-(3-cyanophenyl)-2,6-dimethyl-1,4-dihydropyridine-3,5-dicarboxylate] | – (Only GI% ≥ 10 are shown) | 11 | 44 | 15% | – (Only GI% ≥ 10 are shown) | 12% | – (Only GI% ≥ 10 are shown) | – (Only GI% ≥ 10 are shown) | – (Only GI% ≥ 10 are shown) | – (Only GI% ≥ 10 are shown) | – (Only GI% ≥ 10 are shown) | 13 | 56.5% | 25% | – (Only GI% ≥ 10 are shown) | – (Only GI% ≥ 10 are shown) | – (Only GI% ≥ 10 are shown) | – |
| 124 to 125 | CC1=C(C(=O)OC(C)C)C(c2cccc(C#N)c2)C(C(=O)OC(C)C)=C(C)N1 [Compound 1c, Diisopropyl 4-(3-cyanophenyl)-2,6-dimethyl-1,4-dihydropyridine-3,5-dicarboxylate] | – (Only GI% ≥ 10 are shown) | 13 | 52 | 25% | – (Only GI% ≥ 10 are shown) | – (Only GI% ≥ 10 are shown) | 16% | – (Only GI% ≥ 10 are shown) | – (Only GI% ≥ 10 are shown) | – (Only GI% ≥ 10 are shown) | – (Only GI% ≥ 10 are shown) | 8 | 34.8% | 30% | – (Only GI% ≥ 10 are shown) | – (Only GI% ≥ 10 are shown) | – (Only GI% ≥ 10 are shown) | – |
